{
  "source": "patent US10500169B2",
  "about": "“Supression of IgE production by compounds derived from traditional chinese medicine” (Sean N. Parker Foundation, priority 2014, dated 2019)",
  "key": {"[1]": {"test_system": "U266 cells", "assay": "IgE production by U266 myeloma cells, ELISA of supernatants", "type": "cell-based, human", "conditions": "for IC50: 6 days culture, read-out: IC50 of inhibition of IgE production by U266 cells; for effect on IgE production by U266 cells (in words): different concentrations", "method": "The IgE producing human U266 myeloma cell line (American Type Culture Collection; Rockville, Md.) has been used for screening pharmaceutical agents for IgE inhibitory effects, and thus this cell line was used to test the potential IgE inhibitory effects of herb extracts and purified compounds. Cells were cultured at 37° C. under 5% CO2 in complete media containing RPMI 1640 medium supplemented, 10% FBS, 1 mM sodium pyruvate, 1×10^-5 M β-ME and 0.5% penicillin-streptomycin. Cells were grown at an initial concentration of 2×10^5 cells/mL. FAHF-2 and B-FAHF-2, individual herb extracts and isolated compounds at different concentrations were added at day 0. Supernatants were harvested after 6 days culture, and IgE levels were determined by using an ELISA Kit (Mabtech Inc, OH). In each experiment, we run duplicate ELISA. In vitro experiments were repeated at least 3 times.\nHuman U266 myeloma cells (American Type Culture Collection; Rockville, Md.) were cultured in complete medium (RPMI 1640 medium supplemented, 10% FBS, 1 mM sodium pyruvate, 1×10^−5 M β-ME and 0.5% penicillin-streptomycin) at 37° C. under 5% CO2. Cells were grown at an initial concentration of 2×10^5 cells/mL with purpurin and alizarin from Rubia cordifolia L. at different concentrations (0.31, 0.62, 1.25, 2.5, 5 μg/mL), and with arctiin and arctigenin from Arctium lappa L. at different concentrations ([…]) for 6 days. The supernatants were harvested on day 6 for total IgE analysis using ELISA."}, "[2]": {"test_system": "peanut allergic C3H/HeJ mice", "assay": "Peanut allergic mouse model, 400 μg of compound intragastrically daily for 4 weeks", "type": "in vivo", "conditions": "for body temperature following PN challenge: 30 minutes after oral challenge; for histamine level in plasma: week 15 post therapy challenge", "method": "Freshly ground, whole roasted peanuts were homogenized in sterile PBS (Mediatech, VA) until a smooth suspension was obtained. Female C3H/HeJ mice were sensitized intragastrically (i.g.) with ground PN (10 mg/mouse) and cholera toxin (20 μg), on three consecutive days at week 0, and once a week for 5 weeks, and boosted at weeks 6 and 8 with 50 mg/mouse of PN and cholera toxin (20 μg) (FIG. 37A) as previous described^(40). Mice were intragastrically administered with 400 μg of three different active compounds (arctiin and arctigenin from Arctium lappa L., and 1,3-Dihydroxyanthraquinone from Rubia cordifolia L.) daily 24 h after the week 8 boosting and under this treatment for 4 weeks. Eight PN sensitized/boosted mice receiving 0.5 ml of 0.1% DMSO in water twice daily for the same period of treatment time as sham control mice for this experiment.\nAnaphylactic symptoms were evaluated 30 min after challenge dose by two investigators using a scoring system described previously: […]; 1, scratching and rubbing around the snout and head; 2, puffiness around the eyes and mouth, pilar erection and reduced activity with an increased respiratory rate; 3, wheezing, labored respiration and cyanosis around the mouth; 4, no activity after prodding, or tremors, and convulsion; 5, death due to anaphylaxis.\nTo test the IgE inhibition effect of arctiin, arctigenin, and 1,3-dihydroxyanthraquinone in vivo, we treated peanut allergic mice with 400 μg of each active compound daily for four weeks, as shown in FIG. 37A.^(2)"}, "[3]": {"test_system": "peanut sensitized C3H/HeJ Mice", "assay": "Peanut allergic mouse model, 1,3-Dihydroxyanthraquinone 200 μg per mouse per day for seven weeks", "type": "in vivo", "method": "FIG. 10 illustrates the in vivo experiment protocol. C3H/HeJ Mice were orally sensitized with 10 mg peanut and […] weekly for 5 weeks as described in methods. At weeks 6, 7 and 8, mice were boosted with 50 mg peanut mixed with cholera toxin. Seven weeks of 1,3-Dihydroxyanthraquinone (200 μg per mouse per day) treatment was started at W6. Mice were challenged with PN at week 13 and again at week 18. Mice were sacrificed 48 hours after last challenge."}, "[4]": {"test_system": "peanut allergy subjects", "conditions": "cited from earlier work"}, "[5]": {"test_system": "peanut-allergic patients with high levels of IgE", "conditions": "cited from earlier work"}, "[6]": {"test_system": "human PBMCs", "assay": "IgE production by PBMCs from food allergic patients stimulated with rIL-4 and anti-CD40 mAb, ELISA", "type": "cell-based", "conditions": "Homo sapiens, PBMC, 240 h; 20 μg/mL, 10 days, rIL-4 100 ng/mL + anti-CD40 mAb 1 μg/mL", "method": "PBMCs were isolated by Ficoll Hypaque (Pharmacia, Piscataway, N.J.) using density gradient centrifugation at 1800 RPM for 30 minutes, and washed 3 times in PBS. To determine the optimal stimulation of IgE production by PBMCs, PBMCs at 1.5×10^6 cells/mL were suspended in complete RPMI medium (200 μM L-glutamine, 1% penicillin/streptomycin, 25 mM HEPES, 10% heat inactivated fetal calf serum), and co-stimulated with human recombinant IL-4 (rIL-4) at 0.01 and 0.1 μg/mL (R&D Systems, Minneapolis, Minn., USA) and anti-CD40 monoclonal antibody (mAb) at […] (R&D) for 10 and 14 days. At the end of incubation, the supernatants were collected and IgE levels were analyzed using ELISA kit (Mabtech Inc, OH). Since PBMCs stimulated with 100 ng/mL rIL-4 and 1 μg/mL anti-CD40 mAb produced the highest level of IgE, we used this culture condition for the subsequent studies. PBMCs were stimulated with 100 ng/mL rIL-4 and 1 μg/mL anti-CD40 mAb and cultured in the presence or absence of 20 μg/mL of the two purified compounds for 10 days for screening active compounds, and at different concentrations (0.15, 0.31, 0.62, 1.25, 2.5, 5, 10 μg/mL) to examine dose responses for the effective compounds. IgE level was evaluated using ELISA. The percentage of IgE inhibition was calculated as follows: […]. In some cases if enough PBMCs were obtained, aliquots of PBMCs prepared from the same individuals were used for different experiments."}, "[7]": {"test_system": "U266 cells", "assay": "Cell viability of U266 cells, trypan blue exclusion", "type": "cell-based, human", "conditions": "at the concentrations tested", "method": "Cell viability was evaluated using a trypan blue exclusion as previously described. Briefly, a 10 μl of cells suspension from each culture was mixed with equal volume of trypan blue dye. The mixture was loaded into a hemocytometer and cells were counted under a microscope. The percentage of viable cells was calculated as follows: Viable cells (%)=(total number of viable cells)/(total number of cells)×100."}},
  "data": [
    {"compound": "O=C1c2ccccc2C(=O)c2c(O)c(O)cc(O)c21", "note": "[purpurin]", "values": [
      {"measurement": "IC50", "setting": "[1]; Homo sapiens, U-266, 144 h", "result": 0.353, "unit": "µg/mL"},
      {"measurement": "effect on IgE production by U266 cells (in words)", "setting": "[1]; 6 days", "result": "inhibited the IgE production in a dose-dependent manner"}
    ]},
    {"compound": "O=C1c2ccccc2C(=O)c2c(O)cc(O)cc21", "note": "[1,3-Dihydroxyanthraquinone]", "values": [
      {"measurement": "protection against acute peanut induced anaphylaxis", "setting": "[2]; 400 μg daily for four weeks", "result": "protected against the acute anaphylaxis"},
      {"measurement": "median anaphylactic symptom score", "setting": "[2]; 400 μg daily for four weeks, vs sham", "result": "significant lower"},
      {"measurement": "body temperature following PN challenge", "setting": "[2]", "result": "normal body temperatures"},
      {"measurement": "histamine level in plasma", "setting": "[2]; vs sham", "result": "significantly decreased"},
      {"measurement": "effect on IgE production by U266 cells (in words)", "setting": "[1]; 6 days", "result": "dose-dependent inhibition"},
      {"measurement": "symptom scores following peanut challenge", "setting": "[3]; vs sham", "result": "significantly weaker reactions"},
      {"measurement": "Peanut-Specific IgE levels", "setting": "[3]; weeks 12 and 16", "result": "markedly reduced"}
    ]},
    {"compound": "COc1ccc(C[C@H]2COC(=O)[C@@H]2Cc2ccc(O[C@@H]3O[C@H](CO)[C@@H](O)[C@H](O)[C@H]3O)c(OC)c2)cc1OC", "note": "[arctiin]", "values": [
      {"measurement": "effect on IgE production by U266 cells (in words)", "setting": "[1]; 6 days", "result": "inhibited the IgE production by U266 in dose-dependent manner"}
    ]},
    {"compound": "omalizumab: anti-IgE antibody (Xolair, Genentech)", "values": [
      {"measurement": "peanut tolerability in oral food challenge", "setting": "[4]; post-therapy (24-week), vs placebo", "result": "greater shift in peanut tolerability"},
      {"measurement": "serum peanut specific IgE", "setting": "[4]; post-therapy", "result": "reduction of serum peanut specific IgE"},
      {"measurement": "subjects tolerating 4000 mg of peanut flour", "setting": "[5]; after 7-12 weeks", "result": "Twelve of thirteen"},
      {"measurement": "subjects tolerating a cumulative dose of 992 mg peanut flour", "setting": "[5]; first day", "result": "All thirteen"},
      {"measurement": "patients requiring epinephrine", "setting": "[5]; in vivo", "result": 2, "unit": "patients"}
    ]},
    {"compound": "COc1cc(C[C@H]2C(=O)OC[C@@H]2Cc2ccc(OC)c(OC)c2)ccc1O", "note": "[arctigenin]", "values": [
      {"measurement": "protection against acute peanut induced anaphylaxis", "setting": "[2]; 400 μg daily for four weeks", "result": "protected against the acute anaphylaxis"},
      {"measurement": "body temperature following PN challenge", "setting": "[2]", "result": "normal body temperatures"},
      {"measurement": "histamine level in plasma", "setting": "[2]; vs sham", "result": "significantly decreased"},
      {"measurement": "effect on IgE production by U266 cells (in words)", "setting": "[1]; 6 days", "result": "inhibited the IgE production by U266 in dose-dependent manner"}
    ]},
    {"compound": "O=C1c2ccccc2C(=O)c2c1ccc(O)c2O", "note": "[alizarin]", "values": [
      {"measurement": "IC50", "setting": "[1]; Homo sapiens, U-266, 144 h", "result": 0.762, "unit": "µg/mL"},
      {"measurement": "effect on IgE production by U266 cells (in words)", "setting": "[1]; 6 days", "result": "inhibited the IgE production in a dose-dependent manner"}
    ]},
    {"compound": "CC1(C)O[C@H]2CC(=O)OC[C@]23[C@H]2CC[C@@]4(C)[C@H](c5ccoc5)OC(=O)[C@H]5O[C@]54[C@]2(C)C(=O)C[C@@H]13", "note": "[limonin]", "values": [
      {"measurement": "inhibition at 20 µg/mL", "setting": "[1]; Homo sapiens, U-266, 144 h, 20 μg/mL, 6 days", "result": 35.1, "unit": "%"},
      {"measurement": "effect on IgE production by U266 cells (in words)", "setting": "[1]; 6 days", "result": "mild reduction of IgE production"},
      {"measurement": "inhibition at 20 µg/mL", "setting": "[6]", "result": 33.9, "unit": "%"},
      {"measurement": "cell viability of U266 cells", "setting": "[7]", "result": "no toxicity"}
    ]}
  ]
}
